Reference: EP1857450A1, “Novel enantiomeric compounds for treatment of cardiac arrhythmias and methods of use” (Aryx Therapeutics, priority 1999, dated 2001)

How the values were obtained:
[1] = type: in vitro ADME; details: human
Description: Venous blood (60 ml) was collected in heparinized 15-ml Vacutainer® tubes from the forearm of five human volunteers. Each tube contained 1,000 units of heparin sodium salt. The blood was immediately centrifuged at 2,000 g for 10 minutes and the plasma was collected. Immediately after collection, the plasma was divided into 2-ml aliquots in borosilicate glass tubes (5-ml capacity) capped with a plastic stopper. The tubes were then equilibrated in a 37°C-water bath for at least 15 minutes before the test samples were added.
Stock solutions were prepared by dissolving 25 µmoles (about 18 mg) of each of the test compounds in 10 ml of deionized water. To each of the glass tubes containing 2 ml of fresh plasma, equilibrated at 37°C, was added 40 µl of the stock solutions (one test compound per tube). The plasma/stock solutions were then mixed. Samples (250 µl) were collected at time 0 (immediately after mixing test compounds in plasma) and then at 30, 60, 90, 120, 180, 240, and 300 minutes. The test tubes were capped, to avoid concentration due to evaporation, and left in the 37°C bath during the entire experiment. Each aliquot was immediately introduced into a 1.5-ml microfuge tube containing 20 µl of a 0.01% solution of diethyl paranitrophenylphosphate (paraoxon) in ethanol in order to inhibit esterase activity. The tubes were then capped and vortexed, then kept at -20°C until analysis. The samples were thawed and mixed with 750 µl of a 0.1 % solution of trifluoroacetic acid (TFA) in acetonitrile, vortexed for thorough mixing, and then centrifuged at 12,000 g for 15 minutes. The supernatant was collected for injection in the HPLC system.
The HPLC mobile phase consisted of acetonitrile and water containing 0.1% TFA and 400 mg/L benzyltriethylammonium chloride (BTEAC) in the following proportions and flow rates: 85% acetonitrile and 15% water at 2.0 ml/min. The detection wavelength was set at 242 nm, and the injected volume was 100 µL. The HPLC peaks were recorded, and the integrated values were plotted against time using the SIGMAPLOT software version 4.0 for WINDOWS. The resulting curves were fitted to a first-order exponential decay equation from which hydrolysis half-lives were calculated.

anesthetized rats = assay: Anti-arrhythmic activity in anesthetized rats (benzene/adrenaline challenge, EKG recording); type: in vivo, Male Sprague-Dawley rats; details: for time at which activity against VPB is lost: drug administration time 0 to 120 min; for PR interval / QRS interval / QT interval / Heart rate (beats/minute) / Inhibition of tachycardia / Number of VPB / Inhibition of VPB: isolated enantiomer as compared to the respective racemate; for PR interval / QRS interval / QT interval: EKG; for Number of VPB / Inhibition of VPB: benzene/adrenaline challenge; for Inhibition of VPB: 4 mg/kg i.v. then 12 mg/kg/h for 2 hours; for activity against VPB at the end of the washout period: time 180 min; for inhibition of the formation of ventricular premature beats (VPB): whole period of drug administration (time 0 to 120 min); for protection against tachyarrhythmia (increased heart rate) produced by adrenaline: potency: drug administered from time 0 to time 120 minutes
Description: Male Sprague-Dawley rats with body weights of 410 ± 30 g (Harlan Sprague Dawley Inc., Indianapolis, IN), were anesthetized with sodium pentobarbital (50 mg/kg i.p. - Butler Co., Columbus, OH). The skin from the neck area was removed and the jugular veins on both sides were cleared of connective tissue. Both jugular veins and the left carotid artery were isolated, and the latter tied up cranially with a surgical silk (ETHICON 4-0, Ethicon Inc., Australia). A plastic catheter ([…] 19ga, Vecton Dickinson, Sandy, UT), filled with a solution containing 10% sodium heparin (Elkins-Sinn Inc., Cherry Hill, NJ) in normal saline (100 U/ml sodium heparin), was introduced into the artery and fixed with surgical silk.
The catheter was connected to a pressure transducer (OHMEDA P23-XL, Ohmeda Medical Devices Division Inc., Madison, WI), filled with the same heparinized 0.9% NaCl solution, to register beat-to-beat arterial pressure. Needle electrodes were inserted s.c., and together with the pressure transducer, were joined to a GOULD TA 2000 recorder. Leads II, aVF and intraarterial blood pressure were monitored simultaneously throughout the experiments and recorded at certain intervals at 50 and 200 mm/sec paper speed.
The surgery was completed with an incision on the trachea where a short plastic tubing was placed and the animal was connected to a rodent-model ventilator (HARVARD Model 683, Harvard Apparatus, Inc., Holliston, MA). The animals were ventilated in a controlled way, depending on their spontaneous breathing frequency (55-75/min).
Drug administrations were carried out through i.v. catheters (TERUMO 24 GA*3/4", Terumo Medical Corp., Elkton, MD) inserted into both jugular veins. The left side was used for drug infusions by means of a syringe pump (SAGE INSTRUMENTS, Model 341B, Orion Res. Inc., Boston, MA), and the right side was used for adrenaline injections. The experiments were started after at least 15 minutes of stabilization. Benzene/adrenaline challenges were performed as follows: the respirator inlet was connected to a 50-ml bubbler half-full with benzene (Fisher Scientific, Fair Lawn, NJ) so that the inspired air was saturated with benzene vapor. The animal was ventilated with benzene vapor for two minutes. The tidal volume was typically 1 ml/100g of animal. During the last 30 seconds of benzene ventilation, 10 µg/kg adrenaline solution (in 0.9% NaCl) was injected into the right jugular vein. […] These arrhythmias could be elicited repeatedly. After three control VTs (at -30, -20 and -10 minutes), the test compounds were injected slowly during 30 seconds at a dose of 4 mg/kg i.v., immediately followed by a slow infusion of 12 mg/kg/h for 2 hours. The flow rate during the infusion period was 1 ml/h.
There were 5 rats per test compound and each animal served as its own control. The ability of the different drugs to suppress arrhythmias was tested against repeated benzene/adrenaline challenges at 5, 15, 30, 45, 60, 90, 120 (end of drug infusion), 135, 150, 165 and 180 minutes after the i.v. bolus injection. The amplitudes of the systolic arterial pressure and diastolic arterial pressure […] with the help of a pressure-amplitude calibration curve. Heart rate, number of ventricular complexes during the occurrence of VTs and VPBs, and certain ECG parameters (PR, QRS, QT durations and RR cycle lengths in msec) were also recorded and measured manually. At each time-point, 3-5 cycles were measured and the average values were entered into EXCEL Windows 97. The average and standard deviation for the five experimental animals per compound were calculated.

Compound: CC[C@@H](C)OC(=O)Cc1oc2ccccc2c1C(=O)c1cc(I)c(OCCN(CC)CC)c(I)c1 [Compound R-2042, (R)-sec-Butyl 2-[3-(3,5-diiodo-4-(2-diethylaminoethyloxy)benzoyl)]benzofurane-acetate]
- Plasma half-life [1]: 5.0 h
- time at which activity against VPB is lost (anesthetized rats; benzene vapors and adrenaline): ~100 min
- PR interval (anesthetized rats): shorter
- QRS interval (anesthetized rats): no change
- QT interval (anesthetized rats): no change
- Heart rate (beats/minute) (anesthetized rats; adrenaline injection): lower
- Inhibition of tachycardia (anesthetized rats; adrenaline injection): longer
- Number of VPB (anesthetized rats): lower
- Inhibition of VPB (anesthetized rats): longer
- activity against VPB at the end of the washout period (anesthetized rats): completely inactive

Compound: CCN(CC)CCOc1c(I)cc(C(=O)c2c(CC(=O)O[C@H](C)C(C)C)oc3ccccc23)cc1I [Compound R-2055, (R)-(3-Methyl)-2butyl 2-[3-(3,5-diiodo-4-(2-diethylaminoethyloxy)benzoyl)]benzo-furaneacetate]
- Plasma half-life [1]: 11.7 h
- duration of effect on tachycardia (anesthetized rats; adrenaline injection): longer-lasting effect than S-2055
- PR interval (anesthetized rats): shorter
- QRS interval (anesthetized rats): longer
- QT interval (anesthetized rats): no change
- Heart rate (beats/minute) (anesthetized rats; adrenaline injection): lower
- Inhibition of tachycardia (anesthetized rats; adrenaline injection): longer
- Number of VPB (anesthetized rats): lower
- Inhibition of VPB (anesthetized rats): longer
- activity against VPB at the end of the washout period (anesthetized rats): still retained part of its activity
- inhibition of the formation of ventricular premature beats (VPB) (anesthetized rats; benzene vapors and adrenaline): totally inhibited the formation of ventricular premature beats

Compound: CC[C@H](C)OC(=O)Cc1oc2ccccc2c1C(=O)c1cc(I)c(OCCN(CC)CC)c(I)c1 [R,S-2042]
- activity against VPB of the racemate relative to the enantiomers (anesthetized rats; benzene vapors and adrenaline): even less active than either the R- or the S-isomer
- protection against tachyarrhythmia (increased heart rate) produced by adrenaline: potency (anesthetized rats): the least potent and shortest acting

Compound: CCN(CC)CCOc1c(I)cc(C(=O)c2c(CC(=O)OC(C)C(C)C)oc3ccccc23)cc1I (stereo not drawn) [ATI-2055]
- protection against tachyarrhythmia (increased heart rate) produced by adrenaline: potency (anesthetized rats): inhibits the tachycardia

Compound: CC[C@H](C)OC(=O)Cc1oc2ccccc2c1C(=O)c1cc(I)c(OCCN(CC)CC)c(I)c1 [ATI-2042]
- protection against tachyarrhythmia (increased heart rate) produced by adrenaline: potency (anesthetized rats): very good protection against this tachyarrhythmia

Compound: CCN(CC)CCOc1c(I)cc(C(=O)c2c(CC(=O)O[C@@H](C)C(C)C)oc3ccccc23)cc1I [Compound S-2055, (S) - (3 - Methyl) - 2 butyl 2-[3-(3,5-diiodo-4-(2-diethylaminoethyloacy)benzoyl)]benzo-furaneacetate]
- Plasma half-life [1]: 8.8 h
- time at which activity against VPB is lost (anesthetized rats; benzene vapors and adrenaline): ~40 min
- PR interval (anesthetized rats): shorter
- QRS interval (anesthetized rats): longer
- QT interval (anesthetized rats): no change
- Heart rate (beats/minute) (anesthetized rats; adrenaline injection): lower
- Inhibition of tachycardia (anesthetized rats; adrenaline injection): longer
- Number of VPB (anesthetized rats): lower
- Inhibition of VPB (anesthetized rats): longer
- activity against VPB at the end of the washout period (anesthetized rats): completely inactive

Compound: CC[C@H](C)OC(=O)Cc1oc2ccccc2c1C(=O)c1cc(I)c(OCCN(CC)CC)c(I)c1 [Compound S-2042, (S)-sec-Butyl 2-[3-(3,5-diiodo-4-(2-diethylaminoethytoxy)benzoyl)]benzofurane-acetate]
- Plasma half-life [1]: 7.3 h
- protection against tachyarrhythmia (increased heart rate) produced by adrenaline: potency (anesthetized rats): more potent and longer acting then R-2042
- PR interval (anesthetized rats): longer
- QRS interval (anesthetized rats): longer
- QT interval (anesthetized rats): longer
- Heart rate (beats/minute) (anesthetized rats; adrenaline injection): lower
- Inhibition of tachycardia (anesthetized rats; adrenaline injection): longer
- Number of VPB (anesthetized rats): lower
- Inhibition of VPB (anesthetized rats): longer
- effects on the PR segment of the EKG recording (Class-IV activity): potency (anesthetized rats; rat, in vivo): much more potent than R-2042 and the racemate R,S-2042
- effects on the QT segment of the EKG recording (Class-III properties): potency (anesthetized rats; rat, in vivo): the most potent and the longest acting
- activity against VPB at the end of the washout period (anesthetized rats): still retained part of its activity
- inhibition of the formation of ventricular premature beats (VPB) (anesthetized rats; benzene vapors and adrenaline): totally inhibited the formation of ventricular premature beats
